14 compounds from patent US20110038885A1, “CHEMOKINE ANALOGS” (priority 2007, published 2011) can be followed below.

Bridge positions count the residues as written; N and C are the ends. Square brackets hold non-standard residues; d marks the D form. Peptide text beside a SMILES is read from it. Aoc = NCCCCCCCC(=O)O; Ahx = NCCCCCC(=O)O

Experiment [1] deals with MCP-1. The experiment is described as follows: In vitro chemotaxis (trans-well migration) v MCP-1. The format is cell-based, human. The method in brief: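 Trans-well migration toward IL-8 or MCP-1 placed below, with agent added to THP-1 cells (10^4-10^6) in the top well and incubation at 37° C (e.g. 4 hours). MTT absorbance at 595 nm, interpolated on a cell standard curve, gives migrated cell numbers; TGFβ-type negative control and cytotoxicity check included.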

The subject of experiment [2] is IL-8. Nature of the experiment: In vitro chemotaxis, inhibition v IL-8. The format is cell-based, human. The arrangement: concentration or dose not given beside the values. How it is done:
To determine whether an agent inhibits a chemokine-induced activity, such as macrophage recruitment, varying amounts of the agent are mixed with cells in the presence of a known chemoattractant. For example, a range of known concentrations of an agent, e.g., a chemokine peptide, is incubated with a defined number (e.g., 10^4-10^6) of human THP-1 monocyte cells in individual wells of the top compartment of a trans-well plate. Chemokine, at a concentration known to cause significant migration of THP-1 cells in the trans-well migration assay, is placed in the lower compartment of a trans-well plate. Cells are then incubated at 37° C. for a period sufficient to allow migration, e.g., 4 hours. After incubation, the cells are gently removed from the top of the filter with a pipette, 20 μl of 20 mM EDTA in simple PBS is added into each top well, and incubated for 20 minutes at 4° C. The filter is carefully flushed with media using a gentle flow, and removed. A standard curve consisting of a two-fold dilution series of THP-1 cells (in 29 μl) is placed to accurately quantify the number of cells that have migrated. Migrated cells are stained with 3 μl of MTT stock dye solution which is added directly into each well (5 mg/ml in RPMI-1640 without phenol red) (Sigma Chemical Co., St. Louis, Mo., USA) and incubated at 37° C. for 4 hours. The media is carefully aspirated from each well, and the converted dye is solubilized by 20 μl of DMSO. Absorbance of converted dye is measured at a wavelength of 595 nm using an ELISA plate reader. The number of migrated cells in each well is then determined by interpolation of the standard curve (see also Imai et al., J. Biol. Chem., 272:15036, 1997). Any method suitable for counting cells can be used, for example, counting with a hemocytometer, incubation of the cells with MTT (see above), or FACS analysis. A negative control assay is also performed, using TGFβ or another non-chemokine chemoattractant (e.g., IL1β or TNFα). To assess whether the agent is cytotoxic, the same concentrations of agent are incubated with THP-1 cells. Agents which 1) are not cytotoxic at levels which inhibit migration, 2) are ineffective at inhibiting the negative control-induced migration, and 3) reduce or inhibit chemokine-induced THP-1 migration, are agents which fall within the scope of the invention.

For orientation: EC50 means the concentration at which the effect is half-maximal. In experiment [1], `CC[C@H](C)[C@@H]1NC(=O)[C@H](Cc2c[nH]c3ccccc23)NC(=O)[C@H](CCCCN)NC(=O)[C@H](CCC(N)=O)NC(=O)[C@@H](CCCCN)NC(=O)[C@@H]2CCCN2C(=O)[C@H](CC(=O)O)NC(=O)[C@H](CC(C)C)NC(=O)[C@@H](NC(C)=O)CSSC[C@@H](C(N)=O)NC(=O)[C@H](CCC(N)=O)NC1=O` [Example 29, Ac-c(Cys-Leu-Asp-Pro-D-Lys-Gln-Lys-Trp-Ile-Gln-Cys)-NH2] (Ac-CLDP[dK]QKWIQC-NH2; disulfide 1-11) registered an EC50 of 30 nM. Besides, the “v IL-8 inhibition (%)” value in experiment [2] came out at 92.0%.
The matching figures for `CC[C@H](C)[C@@H]1NC(=O)[C@H](Cc2c[nH]c3ccccc23)NC(=O)[C@H](CCCCN)NC(=O)[C@H](CCC(N)=O)NC(=O)[C@H](CCCCN)NC(=O)[C@@H](NC(=O)[C@@H]2CCCN2)CSSC[C@@H](C(N)=O)NC(=O)[C@H](CCC(N)=O)NC1=O` [Example 43, Pro-c(Cys-Lys-Gln-Lys-Trp-Ile-Gln-Cys)-NH2] (H-PCKQKWIQC-NH2; disulfide 2-9): 600 nM and 21.9%.
`CC[C@H](C)[C@@H]1NC(=O)[C@H](Cc2c[nH]c3ccccc23)NC(=O)[C@H](CCCCN)NC(=O)[C@H](CCC(N)=O)NC(=O)[C@H](CCCCN)NC(=O)[C@@H]2CCCN2C(=O)[C@H](CC(=O)O)NC(=O)[C@H](CC(C)C)NC(=O)[C@@H](NC(=O)[C@H](CCCCN)NC(C)=O)CSSC[C@@H](C(N)=O)NC(=O)[C@H](CCC(N)=O)NC1=O` [Example 34, Ac-Lys-c(Cys-Leu-Asp-Pro-Lys-Gln-Lys-Trp-Ile-Gln-Cys)-NH2] (Ac-KCLDPKQKWIQC-NH2; disulfide 2-12) yielded an EC50 in experiment [1] of 250 nM. Further, in experiment [2], the “v IL-8 inhibition (%)” value amounted to 75.7%.
`CC[C@H](C)[C@@H]1NC(=O)[C@H](Cc2c[nH]c3ccccc23)NC(=O)[C@H](CCCCN)NC(=O)[C@H](CCC(N)=O)NC(=O)[C@H](CCCCN)NC(=O)[C@@H](NC(=O)[C@@H]2CCCN2C(=O)[C@@H](N)CC(=O)O)CSSC[C@@H](C(N)=O)NC(=O)[C@H](CCC(N)=O)NC1=O` [Example 40, Asp-Pro-c(Cys-Lys-Gln-Lys-Trp-Ile-Gln-Cys)-NH2] (H-DPCKQKWIQC-NH2; disulfide 3-10): the response in experiment [1] was half-maximal at 7 nM (EC50). Further, the “v IL-8 inhibition (%)” value in experiment [2] is reported as 113.5%.
In the case of `CC[C@@H](C)[C@H]1NC(=O)[C@@H](CCC(N)=O)NC(=O)[C@H](N)CSSC[C@H](C(=O)NCCCCCCCC(=O)O)NC(=O)[C@@H](CC(C)C)NC(=O)[C@@H](CC(=O)O)NC(=O)[C@H]2CCCN2C(=O)[C@@H](CCCCN)NC(=O)[C@@H](CCC(N)=O)NC(=O)[C@@H](CCCCN)NC(=O)[C@@H](Cc2c[nH]c3ccccc23)NC1=O` [Example 139, c(D-Cys-D-Gln-D-Ile-D-Trp-D-Lys-D-Gln-D-Lys-D-Pro-D-Asp-D-Leu-D-Cys)-Aoc-OH] (H-[dC][dQ][dI][dW][dK][dQ][dK][dP][dD][dL][dC][Aoc]-OH; disulfide 1-11), in experiment [1], the concentration for a half-maximal effect (EC50) turned out to be 100 nM. Also, the “v IL-8 inhibition (%)” value in experiment [2] stood at 47.0%.
For `CC[C@H](C)[C@@H]1NC(=O)[C@H](Cc2c[nH]c3ccccc23)NC(=O)[C@@H](NC(=O)[C@H](CCCCN)NC(=O)[C@H](CCC(N)=O)NC(=O)[C@H](CCCCN)NC(=O)[C@@H]2CCCN2C(=O)[C@H](CC(=O)O)NC(=O)[C@@H](N)CC(C)C)CSSC[C@@H](C(N)=O)NC(=O)[C@H](CCC(N)=O)NC1=O` [Example 13, Leu-Asp-Pro-Lys-Gln-Lys-c(Cys-Trp-Ile-Gln-Cys)-NH2] (H-LDPKQKCWIQC-NH2; disulfide 7-11) the same measures were 8000 nM and 5.8%.
The matching figures for `CC[C@H](C)[C@@H]1NC(=O)[C@H](Cc2c[nH]c3ccccc23)NC(=O)[C@H](CCCCN)NC(=O)[C@H](CCC(N)=O)NC(=O)[C@H](CCCCN)NC(=O)[C@@H]2CCCN2C(=O)[C@H](CC(=O)O)NC(=O)[C@H](CC(C)C)NC(=O)[C@H](N)CSSC[C@H](C(N)=O)NC(=O)[C@H](CCC(N)=O)NC1=O` [Example 37, c(D-Cys-Leu-Asp-Pro-Lys-Gln-Lys-Trp-Ile-Gln-D-Cys)-NH2] (H-[dC]LDPKQKWIQ[dC]-NH2; disulfide 1-11): greater than 1000 nM and −14.7%.
Turning to `CC[C@H](C)[C@@H]1NC(=O)[C@H](Cc2c[nH]c3ccccc23)NC(=O)[C@H](CCCCN)NC(=O)[C@H](CCC(N)=O)NC(=O)[C@H](CCCCN)NC(=O)[C@@H]2CCCN2C(=O)[C@@H](NC(=O)[C@H](CC(=O)O)NC(=O)[C@@H](N)CC(C)C)CSSC[C@@H](C(N)=O)NC(=O)[C@H](CCC(N)=O)NC1=O` [Example 11, Leu-Asp-c(Cys-Pro-Lys-Gln-Lys-Trp-Ile-Gln-Cys)-NH2] (H-LDCPKQKWIQC-NH2; disulfide 3-11), in experiment [1], the EC50 was 330 nM. Also, the “v IL-8 inhibition (%)” value in experiment [2] turned out to be 38.1%.
The matching figures for `CC[C@H](C)[C@@H]1NC(=O)[C@H](Cc2c[nH]c3ccccc23)NC(=O)[C@H](CCCCN)NC(=O)[C@H](CCC(N)=O)NC(=O)[C@H](CCCCN)NC(=O)[C@@H]2CCCN2C(=O)[C@H](CC(=O)O)NC(=O)[C@H](CC(C)C)NC(=O)[C@@H](NC(C)=O)CSSC[C@@H](C(N)=O)NC(=O)[C@@H](CCC(N)=O)NC1=O` [Example 24, Ac-c(Cys-Leu-Asp-Pro-Lys-Gln-Lys-Trp-Ile-D-Gln-Cys)-NH2] (Ac-CLDPKQKWI[dQ]C-NH2; disulfide 1-11): 200 nM and 33.8%.
As for `CC[C@H](C)[C@@H]1NC(=O)[C@H](Cc2c[nH]c3ccccc23)NC(=O)[C@H](CCCCN)NC(=O)[C@H](CCC(N)=O)NC(=O)[C@@H](NC(=O)[C@@H](N)CCCCN)CSSC[C@@H](C(N)=O)NC(=O)[C@H](CCC(N)=O)NC1=O` [Example 47, Lys-c(Cys-Gln-Lys-Trp-Ile-Gln-Cys)-NH2] (H-KCQKWIQC-NH2; disulfide 2-8), the EC50 in experiment [1] is 20 nM. Moreover, in experiment [2], the “v IL-8 inhibition (%)” value is 103.2%.
In experiment [1], `CC[C@H](C)[C@@H]1NC(=O)[C@H](Cc2c[nH]c3ccccc23)NC(=O)[C@H](CCCCN)NC(=O)[C@H](CCC(N)=O)NC(=O)[C@H](CCCCN)NC(=O)[C@@H](NC(=O)[C@@H]2CCCN2C(=O)[C@H](CC(=O)O)NC(=O)[C@@H](N)CC(C)C)CSSC[C@@H](C(N)=O)NC(=O)[C@H](CCC(N)=O)NC1=O` [Example 38, Leu-Asp-Pro-c(Cys-Lys-Gln-Lys-Trp-Ile-Gln-Cys)-NH2] (H-LDPCKQKWIQC-NH2; disulfide 4-11) displayed an EC50 greater than 1000 nM. Also, the “v IL-8 inhibition (%)” value in experiment [2] is −12%.
For `CC[C@H](C)[C@@H]1NC(=O)[C@H](Cc2c[nH]c3ccccc23)NC(=O)[C@H](CCCCN)NC(=O)[C@H](CCC(N)=O)NC(=O)[C@@H](NC(=O)[C@H](CCCCN)NC(=O)[C@@H]2CCCN2C(=O)[C@@H](N)CC(=O)O)CSSC[C@@H](C(N)=O)NC(=O)[C@H](CCC(N)=O)NC1=O` [Example 41, Asp-Pro-Lys-c(Cys-Gln-Lys-Trp-Ile-Gln-Cys)-NH2] (H-DPKCQKWIQC-NH2; disulfide 4-10) the same measures were 80 nM and 67.8%.
`CC[C@@H](C)[C@H]1NC(=O)[C@@H](CCC(N)=O)NC(=O)[C@H](N)CSSC[C@H](C(=O)NCCCCCC(=O)O)NC(=O)[C@@H](CC(C)C)NC(=O)[C@@H](CC(=O)O)NC(=O)[C@H]2CCCN2C(=O)[C@@H](CCCCN)NC(=O)[C@@H](CCC(N)=O)NC(=O)[C@@H](CCCCN)NC(=O)[C@@H](Cc2c[nH]c3ccccc23)NC1=O` [Example 143, c(D-Cys-D-Gln-D-Ile-D-Trp-D-Lys-D-Gln-D-Lys-D-Pro-D-Asp-D-Leu-D-Cys)-Ahx-OH] (H-[dC][dQ][dI][dW][dK][dQ][dK][dP][dD][dL][dC][Ahx]-OH; disulfide 1-11) displayed an EC50 in experiment [1] of 30 nM. In experiment [2], the “v IL-8 inhibition (%)” value came out at 103.5%.
In the case of `CC[C@@H](C)[C@H]1NC(=O)[C@@H](CCC(N)=O)NC(=O)[C@H](N)CSSC[C@H](C(=O)N[C@@H](CC(=O)O)C(=O)NCCCCCCCC(=O)O)NC(=O)[C@@H](CC(C)C)NC(=O)[C@@H](CC(=O)O)NC(=O)[C@H]2CCCN2C(=O)[C@@H](CCCCN)NC(=O)[C@@H](CCC(N)=O)NC(=O)[C@@H](CCCCN)NC(=O)[C@@H](Cc2c[nH]c3ccccc23)NC1=O` [Example 144, c(D-Cys-D-Gln-D-Ile-D-Trp-D-Lys-D-Gln-D-Lys-D-Pro-D-Asp-D-Leu-D-Cys)-Asp-Aoc-OH] (H-[dC][dQ][dI][dW][dK][dQ][dK][dP][dD][dL][dC]D[Aoc]-OH; disulfide 1-11), in experiment [1], the EC50 was 3000 nM. Besides, in experiment [2], the “v IL-8 inhibition (%)” value is 25.4%.
